According to PubChem BioAssay (NCI):
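The concentration for 50% growth inhibition is given as GI50. At the TGI there is no net growth.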

How the values were obtained:
Experiment in all cases: inhibition of tumour cell growth, NCI panel, 384-well format
IGROV1 ovarian = system: IGROV1 ovarian
HCT-15 colon = system: HCT-15 colon
MOLT-4 leukemia = system: MOLT-4 leukemia
NCI-H23 lung = system: NCI-H23 lung
SN12C renal = system: SN12C renal
SF-539 CNS = system: SF-539 CNS
SNB-19 CNS = system: SNB-19 CNS
MDA-MB-468 breast = system: MDA-MB-468 breast
HT29 colon = system: HT29 colon
RXF 393 renal = system: RXF 393 renal
OVCAR-3 ovarian = system: OVCAR-3 ovarian
HOP-92 NSCLC = system: HOP-92 NSCLC
BT-549 breast = system: BT-549 breast
786-0 renal = system: 786-0 renal
KM12 colon = system: KM12 colon
EKVX NSCLC = system: EKVX NSCLC
NCI-H460 NSCLC = system: NCI-H460 NSCLC
SNB-75 CNS = system: SNB-75 CNS
MCF7 breast = system: MCF7 breast
K-562 leukemia = system: K-562 leukemia
SR leukemia = system: SR leukemia
RPMI-8226 leukemia = system: RPMI-8226 leukemia
SK-OV-3 ovarian = system: SK-OV-3 ovarian
HS 578T breast = system: HS 578T breast
T-47D breast = system: T-47D breast
OVCAR-4 ovarian = system: OVCAR-4 ovarian
NCI-H226 lung = system: NCI-H226 lung
MDA-MB-435 melanoma = system: MDA-MB-435 melanoma
U251 glioblastoma = system: U251 glioblastoma
SW-620 colon = system: SW-620 colon
CCRF-CEM leukemia = system: CCRF-CEM leukemia
SK-MEL-2 melanoma = system: SK-MEL-2 melanoma
SF-295 CNS = system: SF-295 CNS
HCT-116 colon = system: HCT-116 colon
PC-3 prostate = system: PC-3 prostate
TK-10 renal = system: TK-10 renal
A498 renal = system: A498 renal
HCC-2998 colon = system: HCC-2998 colon
DU-145 prostate = system: DU-145 prostate
NCI/ADR-RES ovarian = system: NCI/ADR-RES ovarian
OVCAR-8 ovarian = system: OVCAR-8 ovarian
NCI-H522 lung = system: NCI-H522 lung
SF-268 CNS = system: SF-268 CNS
UACC-257 melanoma = system: UACC-257 melanoma
ACHN renal = system: ACHN renal
A549 NSCLC = system: A549 NSCLC
OVCAR-5 ovarian = system: OVCAR-5 ovarian
HL-60(TB) leukemia = system: HL-60(TB) leukemia
CAKI-1 renal = system: CAKI-1 renal
NCI-H322M lung = system: NCI-H322M lung
SK-MEL-5 melanoma = system: SK-MEL-5 melanoma
HOP-62 NSCLC = system: HOP-62 NSCLC
UO-31 renal = system: UO-31 renal

COC(=O)N1c2ccc3c(nc(Cc4ccccc4)n3[C@H]3CCC[C@H](C(=O)O)C3)c2CC[C@@H]1C
GI50 (IGROV1 ovarian): 7.99 µM
TGI (IGROV1 ovarian): 77.4 µM
GI50 (HCT-15 colon): 14.1 µM
TGI (HCT-15 colon): > 100 µM
GI50 (MOLT-4 leukemia): 1.94 µM
TGI (MOLT-4 leukemia): 16.5 µM
GI50 (NCI-H23 lung): 20 µM
TGI (NCI-H23 lung): > 100 µM
GI50 (SN12C renal): 11.5 µM
TGI (SN12C renal): > 100 µM
GI50 (SF-539 CNS): 20.4 µM
TGI (SF-539 CNS): > 100 µM
GI50 (SNB-19 CNS): 9.78 µM
TGI (SNB-19 CNS): > 100 µM
GI50 (MDA-MB-468 breast): 8.31 µM
TGI (MDA-MB-468 breast): 61.2 µM
GI50 (HT29 colon): 6.35 µM
TGI (HT29 colon): > 100 µM
GI50 (RXF 393 renal): 4.47 µM
TGI (RXF 393 renal): 29.5 µM
GI50 (OVCAR-3 ovarian): 5.8 µM
TGI (OVCAR-3 ovarian): 75 µM
GI50 (HOP-92 NSCLC): 3.5 µM
TGI (HOP-92 NSCLC): 81.9 µM
GI50 (BT-549 breast): 2.67 µM
TGI (BT-549 breast): 37.6 µM
GI50 ([…]-0 renal): 6.57 µM
TGI (786-0 renal): > 100 µM
GI50 (KM12 colon): 14.7 µM
TGI (KM12 colon): > 100 µM
GI50 (EKVX NSCLC): 47 µM
TGI (EKVX NSCLC): > 100 µM
GI50 (NCI-H460 NSCLC): 31.5 µM
TGI (NCI-H460 NSCLC): > 100 µM
GI50 (SNB-75 CNS): > 100 µM
TGI (SNB-75 CNS): > 100 µM
GI50 (MCF7 breast): 0.692 µM
TGI (MCF7 breast): 33.4 µM
GI50 (K-562 leukemia): 3.06 µM
TGI (K-562 leukemia): > 100 µM
GI50 (SR leukemia): 1.49 µM
TGI (SR leukemia): 18.3 µM
GI50 (RPMI-8226 leukemia): 0.133 µM
TGI (RPMI-8226 leukemia): 0.314 µM
GI50 (SK-OV-3 ovarian): 18.9 µM
TGI (SK-OV-3 ovarian): > 100 µM
GI50 (HS 578T breast): 1.67 µM
TGI (HS 578T breast): 33.7 µM
GI50 (T-47D breast): 10 µM
TGI (T-47D breast): > 100 µM
GI50 (OVCAR-4 ovarian): 5.43 µM
TGI (OVCAR-4 ovarian): 31 µM
GI50 (NCI-H226 lung): 2.08 µM
TGI (NCI-H226 lung): 40.2 µM
GI50 (MDA-MB-435 melanoma): 14.5 µM
TGI (MDA-MB-435 melanoma): > 100 µM
GI50 (U251 glioblastoma): 25 µM
TGI (U251 glioblastoma): > 100 µM
GI50 (SW-620 colon): > 100 µM
TGI (SW-620 colon): > 100 µM
GI50 (CCRF-CEM leukemia): 1.83 µM
TGI (CCRF-CEM leukemia): 19.2 µM
GI50 (SK-MEL-2 melanoma): 14.7 µM
TGI (SK-MEL-2 melanoma): > 100 µM
GI50 (SF-295 CNS): 22 µM
TGI (SF-295 CNS): > 100 µM
GI50 (HCT-116 colon): 13.9 µM
TGI (HCT-116 colon): > 100 µM
GI50 (PC-3 prostate): 4.78 µM
TGI (PC-3 prostate): > 100 µM
GI50 (TK-10 renal): 2.16 µM
TGI (TK-10 renal): 37.4 µM
GI50 (A498 renal): 24.9 µM
TGI (A498 renal): > 100 µM
GI50 (HCC-2998 colon): 2.05 µM
TGI (HCC-2998 colon): 11.8 µM
GI50 (DU-145 prostate): 26.8 µM
TGI (DU-145 prostate): > 100 µM
GI50 (NCI/ADR-RES ovarian): 82.9 µM
TGI (NCI/ADR-RES ovarian): > 100 µM
GI50 (OVCAR-8 ovarian): 6.82 µM
TGI (OVCAR-8 ovarian): 54.4 µM
GI50 (NCI-H522 lung): 1.6 µM
TGI (NCI-H522 lung): 18.7 µM
GI50 (SF-268 CNS): 24.2 µM
TGI (SF-268 CNS): > 100 µM
GI50 (UACC-257 melanoma): 5.22 µM
TGI (UACC-257 melanoma): 82 µM
GI50 (ACHN renal): 14.5 µM
TGI (ACHN renal): > 100 µM
GI50 (A549 NSCLC): 26.6 µM
TGI (A549 NSCLC): > 100 µM
GI50 (OVCAR-5 ovarian): 12.5 µM
TGI (OVCAR-5 ovarian): 84.7 µM
GI50 (HL-60(TB) leukemia): 0.0322 µM
TGI (HL-60(TB) leukemia): 1.51 µM
GI50 (CAKI-1 renal): 1.48 µM
TGI (CAKI-1 renal): > 100 µM
GI50 (NCI-H322M lung): 11.1 µM
TGI (NCI-H322M lung): 89.7 µM
GI50 (SK-MEL-5 melanoma): 2.54 µM
TGI (SK-MEL-5 melanoma): 15.6 µM
GI50 (HOP-62 NSCLC): 8.43 µM
TGI (HOP-62 NSCLC): > 100 µM
GI50 (UO-31 renal): 7.99 µM
TGI (UO-31 renal): > 100 µM
